Experimental data taken from US10584115B2, “Substituted pyridine and pyrazine BMI-1 inhibitors” (PTC Therapeutics, Inc., priority 2013, dated 2020).
Read-outs that look alike come from different tables or passages of the source.

Tested on: Bmi-1 protein
Experiment: Sandwich ELISA Assay (Bmi-1 protein level in HT-1080 cells after compound treatment)
Type: cell-based
Experimental: Cell Seeding and Compound Treatment (Day 1):
HT-1080 cells were seeded at 8000 cells/well (50 μL) in 96-well tissue culture plates. After the cells became adherent (3-4 hours), 2× diluted stocks of test compounds in 50 μL DMEM containing 1% DMSO (final DMSO concentration was 0.5%) were added and the plates were incubated at 37° C. under 5% CO2 for 40-48 hours.
ELISA Plate First Antibody Preparation (Day 2):
The First Antibody (Millipore Mouse, monoclonal to mouse Bmi-1, clone F6, catalog #05-637) diluted to […] in PBS was added (100 μL) to each well of a Nunc MaxiSorp 96-well ELISA plate. The plate was covered with a plate seal and allowed to stand overnight.
Cell Lysate Preparation (Day 3):
Fresh Lysis buffer (1×) was prepared on the day of the assay as follows: 1 mM EDTA, 150 mM NaCl, 0.5% Triton-X 100, 10 mM NaF, 20 mM B-Glycerophosphate, 1 mM DTT (in PBS, pH 7.2-7.4) and HALT protease inhibitor cocktail (lx) (Pierce #78410).
A standard curve was prepared at the following Bmi-1 concentrations: 8000, 4000, 2000, 1000, 500, 250, 125 and 0 pg/mL. The Bmi-1 Recombinant Protein Standard (Novus Biologicals PCGF4 Recombinant Protein (P01), catalog # H00000648-P01) used to prepare the standard curve was stored at −80° C. On first thaw, the Recombinant Protein Standard was diluted to 10 μg/L in Blocking Buffer (1% BSA in PBS; BSA: Fisher Scientific Catalog #1600-100). Aliquots were taken and refrozen at −80° C. The aliquots may be kept at 4° C. and reused after first thaw, but only within 1-2 weeks. The Recombinant Protein Standard contains a GST-fusion tag that appears at approximately 70 Kda on Western Blot.
The prepared ELISA plate was washed 3× with Wash Buffer (0.05% Tween-20 in PBS). The final wash was removed from the plate and the plate was blotted dry. Blocking Buffer (300 μL) (1% BSA in PBS) was added to each well. The plate was covered with a plate seal and incubated at room temperature for 1 hour. The blocked plate was washed 3× with Wash Buffer, then the final wash was removed and the plate was blotted dry. The previously prepared samples and standards were added ([…]) and the plate was covered with a plate seal and incubated at 4° C. overnight.
The prepared ELISA plate was removed from incubation and allowed to stand at room temperature for 30 minutes, then washed and blotted dry. The Second Antibody (Cell Signaling Rabbit anti-Bmi-1, Cat #2830) diluted to 1:600 in Blocking Buffer was added (100 μL) to each well, except as needed for background control wells. The plate was covered with a plate seal and incubated for 1.5 hrs at room temperature.
The ELISA plate was washed and blotted dry as previously described. The Third Antibody (Cell Signaling HRP conjugated anti-rabbit IgG (CellSignaling, Cat #:7074) diluted to 1:300 in Blocking Buffer was added (100 μL) to each well, except as needed for background control wells. The plate was incubated for 1 hr at room temperature.
The plate was washed and blotted dry, then a previously prepared TMB substrate (TMB substrate kit, Pierce catalog #34021) (prepared by mixing kit reagents 1:1) (100 μL) was added per well. The plate was incubated for 20-30 minutes at room temperature in the dark, then Stop Solution (2 M sulfuric acid in water) (50 μL) was added per well. The plates were read at OD450 (experimental) and OD570 (reference).

[1] = Table 1, Bmi-1 sandwich ELISA, read-out: ELISA EC50 value for Bmi-1 protein
[2] = read-out: ELISA EC50 value for Bmi-1 protein, Table 1, Bmi-1 sandwich ELISA

**Q.** How did the EC50 [1] turn out when `COc1ccc2nc(C(F)(F)F)c(-c3cncc(Nc4ccc(OC(F)F)cc4)n3)n2c1` [Cpd 48, N-[4-(difluoromethoxy)phenyl]-6-[6-methoxy-2-(trifluoromethyl)imidazo[1,2-a]pyridin-3-yl]pyrazin-2-amine] was run?
**A.** 1 to 10 nM

**Q.** Which EC50 [1] does the source give for `COc1ccc2nc(C)c(-c3cncc(Nc4ccc(OC(F)(F)F)cc4)n3)n2c1` [compound 377, 6-(6-methoxy-2-methylimidazo[1,2-a]pyridin-3-yl)-N-[4-(trifluoromethoxy)phenyl]pyrazin-2-amine] here?
**A.** 10 to 100 nM

**Q.** How did the EC50 [1] turn out when `O=[N+]([O-])c1cc(Nc2ccc(C(F)(F)F)cc2)nc(-c2c(C(F)(F)F)nc3ccccn23)c1` [compound 158, 4-nitro-6-[2-(trifluoromethyl)imidazo[1,2-a]pyridin-3-yl]-N-[4-(trifluoromethyl)phenyl]pyridin-2-amine] was run?
**A.** 10 to 100 nM

**Q.** How did the EC50 [1] turn out when `Cc1ccc(Nc2cncc(-c3c(CO)nc4ccccn34)n2)cc1` [compound 214, (3-{6-[(4-methylphenyl)amino]pyrazin-2-yl}imidazo[1,2-a]pyridin-2-yl)methanol] was run?
**A.** < 1 nM

**Q.** For `CNCc1nc2ccccn2c1-c1cncc(Nc2ccc(C(F)(F)F)cc2)n1` [compound 302, 6-{2-[(methylamino)methyl]imidazo[1,2-a]pyridin-3-yl}-N-[4-(trifluoromethyl)phenyl]pyrazin-2-amine], which EC50 [1] is on record?
**A.** 100 to 3000 nM

**Q.** For `FC(F)Oc1ccc(Nc2cccc(-c3c(C(F)(F)F)nc4ncccn34)n2)cc1` [compound 108, N-[4-(difluoromethoxy)phenyl]-6-[2-(trifluoromethyl)imidazo[1,2-a]pyrimidin-3-yl]pyridin-2-amine], which EC50 [1] is on record?
**A.** 10 to 100 nM

**Q.** For `CCOc1ccc(Nc2cncc(-n3c(C)nc4ccccc43)n2)cc1` [compound 664, N-(4-ethoxyphenyl)-6-(2-methyl-1H-benzimidazol-1-yl)pyrazin-2-amine], which EC50 [1] is on record?
**A.** 100 to 3000 nM

**Q.** How did the EC50 [1] turn out when `CCCc1nc2ccccc2n1-c1cncc(Nc2ccc(C(F)(F)F)cc2)n1` [compound 53, 6-(2-propyl-1H-benzimidazol-1-yl)-N-[4-(trifluoromethyl)phenyl]pyrazin-2-amine] was run?
**A.** 10 to 100 nM

**Q.** `COc1ccc2nc(C(F)(F)F)c(-c3cccc(Nc4ccc(C(F)(F)F)cc4)n3)n2c1` [compound 102, 6-[6-methoxy-2-(trifluoromethyl)imidazo[1,2-a]pyridin-3-yl]-N-[4-(trifluoromethyl)phenyl]pyridin-2-amine] was tested. Which EC50 [1] did it give?
**A.** 10 to 100 nM

**Q.** How did the EC50 [1] turn out when `Cc1nc2ccccc2n1-c1cccc(Nc2ccc(OC(F)F)cc2)n1` [Cpd 35, N-[4-(difluoromethoxy)phenyl]-6-(2-methyl-1H-benzimidazol-1-yl)pyridin-2-amine] was run?
**A.** 10 to 100 nM

**Q.** `Cc1nc2ccc(F)cn2c1-c1cc(C#N)cc(Nc2cccc(F)c2)n1` [compound 651, 2-(6-fluoro-2-methylimidazo[1,2-a]pyridin-3-yl)-6-[(3-fluorophenyl)amino}pyridine-4-carbonitrile] was tested. Which EC50 [1] did it give?
**A.** 100 to 3000 nM

**Q.** `Cc1ccc(-c2c(C(F)(F)F)nc3ccccn23)nc1Nc1ccc(C(F)(F)F)cc1` [compound 269, 3-methyl-6-[2-(trifluoromethyl)imidazo[1,2-a]pyridin-3-yl]-N-[4-(trifluoromethyl)phenyl]pyridin-2-amine] was tested. Which EC50 [2] did it give?
**A.** 100 to 3000 nM

**Q.** Which EC50 [1] does the source give for `Cc1nc2cc(F)c(F)cc2n1-c1cc(C#N)cc(Nc2ccc(Cl)cc2)n1` [compound 600, 2-[(4-chlorophenyl)amino]-6-(5,6-difluoro-2-methyl-1H-benzimidazol-1-yl)pyridine-4-carbonitrile] here?
**A.** 10 to 100 nM

**Q.** `COc1ccc(Nc2ccc(N)c(-c3c(C(F)(F)F)nc4ccccn34)n2)cc1` [Cpd 282, N^2-(4-methoxyphenyl)-6-[2-(trifluoromethyl)imidazo[1,2-a]pyridin-3-yl]pyridine-2,5-diamine] was tested. Which EC50 [2] did it give?
**A.** 100 to 3000 nM

**Q.** How did the EC50 [1] turn out when `CCc1nc2ncc(Cl)cc2n1-c1cncc(Nc2ccc(OC(F)F)c(F)c2)n1` [compound 546, 6-(6-chloro-2-ethyl-1H-imidazo[4,5-b]pyridin-1-yl)-N-[4-(difluoromethoxy)-3-fluorophenyl]pyrazin-2-amine] was run?
**A.** 1 to 10 nM

**Q.** With `Cc1nc2c([N+](=O)[O-])cccc2n1-c1cncc(Nc2ccc(C(F)(F)F)cc2)n1` [compound 284, 6-(2-methyl-4-nitro-1H-benzimidazol-1-yl)-N-[4-(trifluoromethyl)phenyl]pyrazin-2-amine] as the compound, how does the EC50 [1] read?
**A.** 100 to 3000 nM

**Q.** `N#Cc1cc(Nc2ccc(C(F)(F)F)nc2)nc(-c2c(CO)nc3ccc(F)cn23)c1` [compound 445, 2-[6-fluoro-2-(hydroxymethyl)imidazo[1,2-a]pyridin-3-yl]-6-{[6-(trifluoromethyl)pyridin-3-yl]amino}pyridine-4-carbonitrile] was tested. Which EC50 [1] did it give?
**A.** 10 to 100 nM

**Q.** How did the EC50 [1] turn out when `Cc1nc2ccccc2n1-c1cncc(Nc2ccc(C(F)(F)F)c(N)c2)n1` [compound 506, N^1-[6-(2-methyl-1H-benzimidazol-1-yl)pyrazin-2-yl]-4-(trifluoromethyl)benzene-1,3-diamine] was run?
**A.** 10 to 100 nM

**Q.** With `Cc1ccc(Nc2cc(N)cc(-n3c(C)nc4ccccc43)n2)cc1` [compound 632, 6-(2-methyl-1H-benzimidazol-1-yl)-N^2-(4-methylphenyl)pyridine-2,4-diamine] as the compound, how does the EC50 [1] read?
**A.** 1 to 10 nM

**Q.** For `Cc1nc2ncc(F)cc2n1-c1cncc(Nc2ccc(C(F)(F)F)cc2)n1` [compound 270, 6-(6-fluoro-2-methyl-1H-imidazo[4,5-b]pyridin-1-yl)-N-[4-(trifluoromethyl)phenyl]pyrazin-2-amine], which EC50 [1] is on record?
**A.** 1 to 10 nM

**Q.** With `[O-][n+]1cc(Nc2ccc(OC(F)F)cc2)nc(-n2c(C3CC3)nc3cc(F)c(F)cc32)c1` [compound 530, 6-(2-cyclopropyl-5,6-difluoro-1H-benzimidazol-1-yl)-N-[4-(difluoromethoxy)phenyl]pyrazin-2-amine 4-oxide] as the compound, how does the EC50 [1] read?
**A.** 10 to 100 nM

**Q.** How did the EC50 [1] turn out when `Cc1nc2ncc(Cl)cc2n1-c1cc(C#N)cc(Nc2ccc(C(F)(F)F)cc2)n1` [compound 419, 2-(6-chloro-2-methyl-1H-imidazo[4,5-b]pyridin-1-yl)-6-{[4-(trifluoromethyl)phenyl]amino}pyridine-4-carbonitrile] was run?
**A.** 1 to 10 nM

**Q.** Which EC50 [1] does the source give for `N#Cc1nc2ccccc2n1-c1cncc(Nc2ccc(OC(F)(F)F)cc2)n1` [compound 184, 1-(6-{[4-(trifluoromethoxy)phenyl]amino}pyrazin-2-yl)-1H-benzimidazole-2-carbonitrile] here?
**A.** 100 to 3000 nM

**Q.** How did the EC50 [1] turn out when `FC(F)(F)c1nc2ccccn2c1-c1cncc(Nc2ccc(Br)c(Cl)c2)n1` [Cpd 31, N-(4-bromo-3-chlorophenyl)-6-[2-(trifluoromethyl)imidazo[1,2-a]pyridin-3-yl]pyrazin-2-amine] was run?
**A.** 10 to 100 nM

**Q.** `Cc1nc2c(n1-c1cncc(Nc3ccc(OC(F)(F)F)cc3)n1)CCCC2` [compound 268, 6-(2-methyl-4,5,6,7-tetrahydro-1H-benzimidazol-1-yl)-N-[4-(trifluoromethoxy)phenyl]pyrazin-2-amine] was tested. Which EC50 [1] did it give?
**A.** 10 to 100 nM

**Q.** `OCCNc1cc(Nc2ccc(C(F)(F)F)cc2)nc(-c2c(C(F)(F)F)nc3ccccn23)c1` [compound 160, 2-[(2-[2-(trifluoromethyl)imidazo[1,2-a]pyridin-3-yl]-6-{[4-(trifluoromethyl)phenyl]amino}pyridin-4-yl)amino]ethanol] was tested. Which EC50 [1] did it give?
**A.** 10 to 100 nM

**Q.** Which EC50 [1] does the source give for `FC(F)(F)c1nc2ccccn2c1-c1cncc(Nc2ccc(Cl)c(Cl)c2)n1` [Cpd 29, N-(3,4-dichlorophenyl)-6-[2-(trifluoromethyl)imidazo[1,2-a]pyridin-3-yl]pyrazin-2-amine] here?
**A.** 10 to 100 nM
